Measurements taken from patent EP0147851B1, “Water soluble forms of polyene antibiotics, and process for preparing them” (priority 1983, dated 1985).
Read-outs that look alike come from different tables or passages of the source.

Experiments:
[1] = Solubility of Amphotericin B in aqueous γ-CD solutions (spectrophotometric); type: physicochemical; conditions: for Amphotericin B Konzentration: 37 °C, 2 Stunden geschüttelt
Method: Das ist ein weiterer Beweis dafür, daß das Amphotericin in den γ-CD-haltigen wäßrigen Lösungen in molekular disperser Form vorliegt.
Auch für Amphotericin B wurde die Löslichkeit als Funktion der γ-CD-Konzentration ermittelt. Zu wäßrigen γ-CD-Lösungen unterschiedlicher Konzentration (0, 2, 4, 5, 6, 8, 10 beziehungsweise 12 %) wurden 5 mg/ml Amphotericin B gegeben, und die bei 37 °C thermostatisierten Lösungen wurden 2 Stunden lang intensiv geschüttelt. Die Lösungen wurden klarfiltriert, und die Menge des in Lösung gegangenen Amphotericin B wurde spektrophotometrisch bestimmt. Die Ergebnisse sind in der Tabelle 3 zusammengestellt.

[2] = test system: aus menschlichem Blut hergestellten Suspensionen roter Blutkörperchen; conditions: human
From the text: Dyn. 6, 408-414 [1983]) untersucht. Die Ergebnisse werden in Form der zu 50 %iger Hämolyse gehörenden Konzentrationen (EH₅₀) angegeben. […] Auch die hämolytische Wirkung einer der im Komplex gebundenen γ-CD-Menge entsprechenden Menge γ-Cyclodextrin wurde untersucht.

[3] = test system: aus menschlichem Blut hergestellten Suspensionen roter Blutkörperchen; conditions: cited from earlier work
Mäusen = conditions: i.p. an Mäusen; cited from earlier work
Weibliche CFY-Ratten = assay: Mortality after subcutaneous administration in rats; type: in vivo; conditions: subcutan, 302 mg/kg, 10 Tiere, observation one week
From the text: • a) Die Resorption von Nystatin aus per os verabreichtem Nystatin-γ-CD-Komplex Die Resorption des Wirkstoffes wurde an Mäusen, an einem durch intravenöse Applikation einer Suspension von Candida albicans hervorgerufenen Sepsismodell untersucht. Die Sepsis verursachte innerhalb von 2-3 Tagen 100 %ige Mortalität. Den Versuchstieren wurde per os gemäß Beispiel 3 hergestellte, 8 % Nystatin enthaltende Komplex verabreicht. In einem Parallelversuch wurde Nystatin intravenös appliziert. Für beide Gruppen wurde die auf die unbehandelte Kontrolle bezogene Verlängerung der Überlebensdauer ermittelt. [formula] Wenn man diejenigen in Form des Komplexes per os verabreichten Nystatindosen mit denjenigen i.v. applizierten Nystatindosen vergleicht, die eine etwa gleiche Verlängerung der Überlebensdauer bewirkten (Tabelle 9, letzte Spalte),so läßt sich errechnen, daß aus dem Komplex durchschnittlich 6,2 % des Wirkstoffes in die Blutbahn gelangten. Bei den höchsten Dosen (i.v. 1,56 mg/kg, p.o. 25 mg/kg) ist das Zurückfallen der Überlebensdauer bereits auf die schwache Toxizität des Nystatins zurückzuführen. • b) Die Resorption von Nystatin aus subcutan appliziertem Nystatin-γ-CD-Komplex Weibliche CFY-Ratten eines durchschnittlichen Gewichtes von 180 g wurden mit Nystatin, mit Nystatin-γ-CD-Komplex (Wirkstoffgehalt9 8 %) beziehungsweise mit γ-CD behandelt. […]

[4] = Solubility of Flavofungin in aqueous γ-CD solutions (spectrophotometric); type: physicochemical; conditions: 4 % γ-CD versus water
Method: Der erste Beweis für die Wechselwirkung zwischen Flavofungin und γ-Cyclodextrin ist der beträchtliche Anstieg der Löslichkeit des Flavofungins in wäßrigen γ-Cyclodextrinlösungen. Zur Untersuchung der Löslichkeit wurden wäßrige γ-CD-Lösungen unterschiedlicher Konzentration hergestellt: die Lösungen enthielten 0, 1, 2, 3, 4, 5, 7,5 beziehungsweise 10 % γ-CD. Zu je 1 ml der Lösungen wurden 5 mg festes Flavofungin gegeben. Die Lösungen wurden bei 25 °C 3 Stunden lang intensiv geschüttelt.
Die Lösungen wurden klarfiltriert, dann wurde spektrophotometrisch die Menge des in Lösung gegangenen Flavofungins ermittelt. Die Messungen zeigten, daß sich das Flavofungin am besten in 4 % γ-CD enthaltenden wäßrigen Lösungen löst; unter den Bedingungen der Untersuchung können Konzentrationen von etwa 4 mg/ml erzielt werden. […] Eine weitere Erhöhung der γ-CD-Konzentration steigert die Löslichkeit des Flavofungins nicht weiter. Die Ergebnisse der Löslichkeitsuntersuchungen sind in der Tabelle 1 zusammengefaßt.
Die aus dem anfänglich linearen Abschnitt der bei 25 °C aufgenommenen Löslichkeitsisotherme berechnete scheinbare Stabilitätskonstante des Komplexes beträgt etwa 3230.
Die maximale Löslichkeit in 4 %iger γ-CD-Lösung wurde auch bei verschiedenen Temperaturen untersucht. Die Flavofunginkonzentration betrug bei 10 °C 3,3 mg/ml, bei 30 °C 4,1 mg/ml und bei 40 °C 3,8 mg/ml.

[5] = Heat and storage stability of the solid substances (spectrophotometric content); type: physicochemical; conditions: 60 °C, 24 Stunden, not protected from light or air
Method: Zur Untersuchung der Wärmestabilität des Flavofungin-γ-CD-Komplexes wurden die Substanzen in 1 mm Schichtdicke auf Uhrgläsern ausgebreitet und weder vor Licht noch vor Luft geschützt bei Raumtemperatur beziehungsweise bei 60 °C im Trockenschrank gelagert. Die zu unterschiedlichen Zeitpunkten genommenen Proben wurden spektrophotometrisch analysiert.
Der Wirkstoffgehalt des Flavofungin-γ-CD-Komplexes blieb jedoch auch nach 50 Tagen zu etwa 75 % erhalten. Ein 10 % Flavofungin enthaltendes, mit Glucose bereitetes physikalisches Gemisch verlor bei 14tägiger Lagerung bei Raumtemperatur 50 % seines Wirkstoffgehaltes. Der Wirkstoffgehalt des Komplexes war jedoch auch nach 50 Tagen noch zu mehr als 95 % erhalten. Die in einem verschlossenen Gefäß bei +4 °C 7 Monate lang gelagerte Probe zeigte keinen Verlust an Wirkstoff. Die Meßergebnisse sind in der Tabelle 4 zusammengestellt.
(§1) Auch mit diesem Produkt wird die im Beispiel 1 beschriebene Untersuchung der Wärmestabilität vorgenommen. Dabei wurde gefunden, daß der Komplex, ähnlich wie der lyophilisierte Komplex, eine erhöhte Wärmestabilität zeigt und seine antifungale Wirkung nicht geringer wird.

[6] = test system: S. oerevisiae, C. albicans, C. crusei und C. pseudotropicals; assay: Microbiological potency after storage (MIC); type: cell-based; conditions: sample stored under nitrogen in the freezer
Method: Auch die mikrobiologische Wertmessung bestätigte, daß das Flavofungin in Form des γ-CD-Komplexes viel stabiler ist. Flavofungin-γ-CD-Komplex wurde bei Raumtemperatur und bei 60°C gelagert, und danach war die antifungale Wirkung genau so groß wie ursprünglich.
as §1

[7] = Raumtemperatur an der Luft, innerhalb von zwei Wochen; cited from earlier work

C[C@@H]1[C@H](O)[C@@H](C)/C=C/C=C/C=C/C=C/C=C/C=C/C=C/[C@H](O[C@@H]2O[C@H](C)[C@@H](O)[C@H](N)[C@@H]2O)C[C@@H]2O[C@](O)(C[C@@H](O)C[C@@H](O)[C@H](O)CC[C@@H](O)C[C@@H](O)CC(=O)O[C@H]1C)C[C@H](O)[C@H]2C(=O)O [Amphotericin B]
Löslichkeit relative to Löslichkeit in Wasser ([1]; 5 %ige γ-CD-Lösung): etwa das Hundertfache | Löslichkeit relative to Löslichkeit in Wasser ([1]; 10 %ige γ-CD-Lösung): etwa das Zweihundertfache | Löslichkeit in γ-CD-haltigen Lösungen on addition of salt ([1]; Zusatz von 0,9 Gew.-% Kochsalz): nicht verändert | Amphotericin B Konzentration ([1]; γ-CD-Konzentration 0 %): 0,003 mg/ml | Amphotericin B Konzentration ([1]; γ-CD-Konzentration 2 %): 0,12 mg/ml | Amphotericin B Konzentration ([1]; γ-CD-Konzentration 4 %): 0,25 mg/ml | Amphotericin B Konzentration ([1]; γ-CD-Konzentration 5 %): 0,30 mg/ml | Amphotericin B Konzentration ([1]; γ-CD-Konzentration 6 %): 0,36 mg/ml | Amphotericin B Konzentration ([1]; γ-CD-Konzentration 8 %): 0,51 mg/ml | Amphotericin B Konzentration ([1]; γ-CD-Konzentration 10 %): 0,65 mg/ml | Amphotericin B Konzentration ([1]; γ-CD-Konzentration 12 %): 0,65 mg/ml | EH₅₀ (concentration for 50 % haemolysis) [2]: 4,8 µg/ml | Hämolyse ([2]; 25 µg/ml): 92,4% | EH₅₀ (concentration for 50 % haemolysis) [3]: 5 µg/mL

Methylester von Amphotericin B
LD₅₀ (Mäusen): 1320 mg/kg

OC[C@H]1O[C@@H]2O[C@H]3[C@H](O)[C@@H](O)[C@@H](O[C@H]4[C@H](O)[C@@H](O)[C@@H](O[C@H]5[C@H](O)[C@@H](O)[C@@H](O[C@H]6[C@H](O)[C@@H](O)[C@@H](O[C@H]7[C@H](O)[C@@H](O)[C@@H](O[C@H]8[C@H](O)[C@@H](O)[C@@H](O[C@H]9[C@H](O)[C@@H](O)[C@@H](O[C@H]1[C@H](O)[C@H]2O)O[C@@H]9CO)O[C@@H]8CO)O[C@@H]7CO)O[C@@H]6CO)O[C@@H]5CO)O[C@@H]4CO)O[C@@H]3CO [γ-CD, γ-Cyclodextrin]
Mortalität (animals that died) (Weibliche CFY-Ratten): kein einziges

Flavofungin
Anstieg der Löslichkeit [4]: etwa das Achtzigfache | Zersetzung of the solid [5]: starke Zersetzung | MIC [6]: 25 µg/mL | Verlust der Aktivität [7]: 50%
